Literature values, collected in patent publication US20060030550A1, “Pharmaceutical formulations” (priority 2004, published 2006).

Key:
[1] = topically active steroid
[2] = preclinical testing
[3] = system: rhinoviruses
[4] = R112 over placebo, recent study

C[C@@H]1C[C@H]2[C@@H]3CCC4=CC(=O)C=C[C@]4(C)[C@@]3(Cl)[C@@H](O)C[C@]2(C)[C@@]1(OC(=O)c1ccco1)C(=O)CCl [Mometasone Furoate]
bioavailability [1]: not readily bioavailable

O=c1ccn([C@@H]2O[C@H](COP(=O)(O)OP(=O)(O)OP(=O)(O)OP(=O)(O)OC[C@H]3O[C@@H](n4ccc(=O)[nH]c4=O)[C@H](O)[C@@H]3O)[C@@H](O)[C@H]2O)c(=O)[nH]1 [diquafosol]
secretions of natural tear components [2]: increased

Oc1cccc(Nc2ncc(F)c(Nc3cccc(O)c3)n2)c1 [R112]
symptoms most closely associated with chronic nasal congestion (e.g. stuffy nose) (R112 over placebo): improved
absolute difference over placebo [4]: 9%
relative improvement over placebo [4]: greater than 20%
improvement from baseline measurements (baseline = prior to drug initiation): up to 38%

Cc1cc(CCCOc2c(C)cc(-c3noc(C(F)(F)F)n3)cc2C)on1 [Pleconaril, 1,2,4-oxadiazole3-[3,5-Dimethyl-4-[3-(3-methyl-5-isoxazolyl)propoxy]phenyl]-5-(trifluoremethyl)]
activity against rhinoviruses [3]: active against rhinoviruses
